Reference: patent publication US20230085307A1, “PYRIDAZINONE COMPOUND AND HERBICIDE” (NISSAN CHEMICAL CORPORATION, priority 2019, published 2023)

How the values were obtained:
windgrass [1] = assay: Test Example 4: herbicidal effect by soil treatment (Table 19, symbol L); assay type: in vivo, windgrass (Apera spica-venti); conditions: amount of applied herbicide 320 g/ha
Outline: (§1)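 Scoring uses the grading scale of an earlier test, three weeks post-application. Treatment consists of spraying a diluted emulsion formulation across the surface of sterilized diluvial soil in which seeds are buried near 1.5 cm deep; boxes are kept in a greenhouse between 25° C. and 30° C.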

blackgrass [2] = assay: Test Example 5: herbicidal effect by foliage application, plastic box (Table 20, symbol J); assay type: in vivo, blackgrass (Alopecurus myosuroides); conditions: foliage application, 320 g/ha, three weeks after application
Outline: (§2)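 Post-emergence foliar test in sterilized diluvial soil. Compound applied as water-diluted emulsion at a predetermined rate to 14-day-old plants; evaluation at three weeks.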

late watergrass = assay: Test Example 1: herbicidal activity, application before weed generation under submerged conditions (Table 16, symbol A); assay type: in vivo, late watergrass (Echinochloa oryzicola); conditions: amount of applied herbicide 320 g/ha
Outline: (§3)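 Submerged Wagner pots (alluvial soil, 4 cm water) sown with weed seeds and planted with 2.5-leaf rice seedlings; emulsifiable concentrate diluted in water applied to water surface on sowing day. Held in greenhouse at 25-30 °C; injury scored 0-5 by herbicidal rate after three weeks.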

green foxtail [3] = assay: Test Example 5: herbicidal effect by foliage application, plastic box (Table 20, symbol G); assay type: in vivo, green foxtail (Setaria viridis); conditions: foliage application, 320 g/ha, three weeks after application
Outline: as §2

blackgrass [4] = assay: Test Example 4: herbicidal effect by soil treatment (Table 19, symbol J); assay type: in vivo, blackgrass (Alopecurus myosuroides); conditions: amount of applied herbicide 320 g/ha
Outline: as §1

oval-leafed pondweed = assay: Test Example 1: herbicidal activity, application before weed generation under submerged conditions (Table 16, symbol C); assay type: in vivo, oval-leafed pondweed (Monochoria vaginalis); conditions: amount of applied herbicide 320 g/ha
Outline: as §3

persian speedwell [5] = assay: Test Example 5: herbicidal effect by foliage application, plastic box (Table 20, symbol R); assay type: in vivo, Persian speedwell (Veronica persica); conditions: foliage application, 320 g/ha, three weeks after application
Outline: as §2

barnyard grass [6] = assay: Test Example 4: herbicidal effect by soil treatment (Table 19, symbol H); assay type: in vivo, barnyard grass (Echinochloa crus-galli); conditions: amount of applied herbicide 320 g/ha
Outline: as §1

persian speedwell [7] = assay: Test Example 4: herbicidal effect by soil treatment (Table 19, symbol R); assay type: in vivo, Persian speedwell (Veronica persica); conditions: amount of applied herbicide 320 g/ha
Outline: as §1

green foxtail [8] = assay: Test Example 4: herbicidal effect by soil treatment (Table 19, symbol G); assay type: in vivo, green foxtail (Setaria viridis); conditions: amount of applied herbicide 320 g/ha
Outline: as §1

velvetleaf [9] = assay: Test Example 5: herbicidal effect by foliage application, plastic box (Table 20, symbol M); assay type: in vivo, velvetleaf (Abutilon theophrasti); conditions: foliage application, 320 g/ha, three weeks after application
Outline: as §2

rice flat sedge = assay: Test Example 3: herbicidal effect by foliage application, Wagner pot (Table 18, symbol E); assay type: in vivo, rice flat sedge (Cyperus iria); conditions: 320 g/ha
Outline: (§4)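 Plants were sown in alluvial soil held under 0.1–0.5 cm standing water and grown 14 days in a greenhouse at 25–30 °C. An emulsifiable formulation, water-diluted to the set dose, was then sprayed onto the foliage, and effects were scored three weeks later using previously defined criteria.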

lambsquarters [10] = assay: Test Example 5: herbicidal effect by foliage application, plastic box (Table 20, symbol O); assay type: in vivo, lambsquarters (Chenopodium album); conditions: foliage application, 320 g/ha, three weeks after application
Outline: as §2

barnyard grass [11] = assay: Test Example 5: herbicidal effect by foliage application, plastic box (Table 20, symbol H); assay type: in vivo, barnyard grass (Echinochloa crus-galli); conditions: foliage application, 320 g/ha, three weeks after application
Outline: as §2

velvetleaf [12] = assay: Test Example 4: herbicidal effect by soil treatment (Table 19, symbol M); assay type: in vivo, velvetleaf (Abutilon theophrasti); conditions: amount of applied herbicide 320 g/ha
Outline: as §1

wild oat [13] = assay: Test Example 5: herbicidal effect by foliage application, plastic box (Table 20, symbol I); assay type: in vivo, wild oat (Avena fatua); conditions: foliage application, 320 g/ha, three weeks after application
Outline: as §2

windgrass [14] = assay: Test Example 5: herbicidal effect by foliage application, plastic box (Table 20, symbol L); assay type: in vivo, windgrass (Apera spica-venti); conditions: foliage application, 320 g/ha, three weeks after application
Outline: as §2

lambsquarters [15] = assay: Test Example 4: herbicidal effect by soil treatment (Table 19, symbol O); assay type: in vivo, lambsquarters (Chenopodium album); conditions: amount of applied herbicide 320 g/ha
Outline: as §1

southern crabgrass [16] = assay: Test Example 4: herbicidal effect by soil treatment (Table 19, symbol F); assay type: in vivo, southern crabgrass (Digitaria ciliaris); conditions: amount of applied herbicide 320 g/ha
Outline: as §1

chickweed = assay: Test Example 4: herbicidal effect by soil treatment (Table 19, symbol P); assay type: in vivo, common chickweed (Stellaria media); conditions: amount of applied herbicide 320 g/ha
Outline: as §1

redroot pigweed = assay: Test Example 4: herbicidal effect by soil treatment (Table 19, symbol N); assay type: in vivo, redroot pigweed (Amaranthus retroflexus); conditions: amount of applied herbicide 320 g/ha
Outline: as §1

southern crabgrass [17] = assay: Test Example 5: herbicidal effect by foliage application, plastic box (Table 20, symbol F); assay type: in vivo, southern crabgrass (Digitaria ciliaris); conditions: foliage application, 320 g/ha, three weeks after application
Outline: as §2

Italian ryegrass [18] = assay: Test Example 5: herbicidal effect by foliage application, plastic box (Table 20, symbol K); assay type: in vivo, Italian ryegrass (Lolium multiflorum); conditions: foliage application, 320 g/ha, three weeks after application
Outline: as §2

wild oat [19] = assay: Test Example 4: herbicidal effect by soil treatment (Table 19, symbol I); assay type: in vivo, wild oat (Avena fatua); conditions: amount of applied herbicide 320 g/ha
Outline: as §1

Italian ryegrass [20] = assay: Test Example 4: herbicidal effect by soil treatment (Table 19, symbol K); assay type: in vivo, Italian ryegrass (Lolium multiflorum); conditions: amount of applied herbicide 320 g/ha
Outline: as §1

Chinese sprangletop = assay: Test Example 3: herbicidal effect by foliage application, Wagner pot (Table 18, symbol D); assay type: in vivo, chinese sprangletop (Leptochloa chinensis); conditions: 320 g/ha
Outline: as §4

Japanese bulrush = assay: Test Example 1: herbicidal activity, application before weed generation under submerged conditions (Table 16, symbol B); assay type: in vivo, Japanese bulrush (Schoenoplectus juncoides); conditions: amount of applied herbicide 320 g/ha
Outline: as §3

barnyard grass [21] = assay: Test Example 3: herbicidal effect by foliage application, Wagner pot (Table 18, symbol H); assay type: in vivo, barnyard grass (Echinochloa crus-galli); conditions: 320 g/ha
Outline: as §4

| Structure (SMILES) | L: windgrass, herbicidal effect grade (windgrass [1]) | herbicidal effect on blackgrass (J) (blackgrass [2]) | Herbicidal effect, A: late watergrass (late watergrass) | herbicidal effect on green foxtail (G) (green foxtail [3]) | J: blackgrass, herbicidal effect grade (blackgrass [4]) | Herbicidal effect, C: oval-leafed pondweed (oval-leafed pondweed) | herbicidal effect on persian speedwell (R) (persian speedwell [5]) | H: barnyard grass, herbicidal effect grade (barnyard grass [6]) | R: persian speedwell, herbicidal effect grade (persian speedwell [7]) | G: green foxtail, herbicidal effect grade (green foxtail [8]) | herbicidal effect on velvetleaf (M) (velvetleaf [9]) | herbicidal effect on rice flat sedge (E) (rice flat sedge) | herbicidal effect on lambsquarters (O) (lambsquarters [10]) | herbicidal effect on barnyard grass (H) (barnyard grass [11]) | M: velvetleaf, herbicidal effect grade (velvetleaf [12]) | herbicidal effect on wild oat (I) (wild oat [13]) | herbicidal effect on windgrass (L) (windgrass [14]) | O: lambsquarters, herbicidal effect grade (lambsquarters [15]) | F: southern crabgrass, herbicidal effect grade (southern crabgrass [16]) | P: chickweed, herbicidal effect grade (chickweed) | also measured |
| --- | --- | --- | --- | --- | --- | --- | --- | --- | --- | --- | --- | --- | --- | --- | --- | --- | --- | --- | --- | --- | --- |
| COc1ccc(-c2sc3cc(OC)c(Cl)cc3c2-c2c(O)c(C)nn(C)c2=O)cc1 [5-070] | 0 (Herbicidal rate of 5% or less (almost no effect)) | 0 (Herbicidal rate of 5% or less (almost no effect)) | 0 (Herbicidal rate of 5% or less (almost no effect)) | 0 (Herbicidal rate of 5% or less (almost no effect)) | 0 (Herbicidal rate of 5% or less (almost no effect)) | 0 (Herbicidal rate of 5% or less (almost no effect)) | 4 (Herbicidal rate of 70% or more and less than 90%) | 0 (Herbicidal rate of 5% or less (almost no effect)) | 3 (Herbicidal rate of 40% or more and less than 70%) | 0 (Herbicidal rate of 5% or less (almost no effect)) | 0 (Herbicidal rate of 5% or less (almost no effect)) | 0 (Herbicidal rate of 5% or less (almost no effect)) | 0 (Herbicidal rate of 5% or less (almost no effect)) | 0 (Herbicidal rate of 5% or less (almost no effect)) | 0 (Herbicidal rate of 5% or less (almost no effect)) | 0 (Herbicidal rate of 5% or less (almost no effect)) | 0 (Herbicidal rate of 5% or less (almost no effect)) | 0 (Herbicidal rate of 5% or less (almost no effect)) | 0 (Herbicidal rate of 5% or less (almost no effect)) | 1 (Herbicidal rate of 5% or more and less than 20%) | N: redroot pigweed, herbicidal effect grade (redroot pigweed): 0 (Herbicidal rate of 5% or less (almost no effect)); herbicidal effect on southern crabgrass (F) (southern crabgrass [17]): 0 (Herbicidal rate of 5% or less (almost no effect)); herbicidal effect on Italian ryegrass (K) (Italian ryegrass [18]): 0 (Herbicidal rate of 5% or less (almost no effect)); I: wild oat, herbicidal effect grade (wild oat [19]): 0 (Herbicidal rate of 5% or less (almost no effect)); K: Italian ryegrass, herbicidal effect grade (Italian ryegrass [20]): 0 (Herbicidal rate of 5% or less (almost no effect)); herbicidal effect on Chinese sprangletop (D) (Chinese sprangletop): 0 (Herbicidal rate of 5% or less (almost no effect)); Herbicidal effect, B: Japanese bulrush (Japanese bulrush): 2 (Herbicidal rate of 20% or more and less than 40%); herbicidal effect on barnyard grass (H) (barnyard grass [21]): 3 (Herbicidal rate of 40% or more and less than 70%) |
| CCCC(=O)Oc1c(C)nn(C)c(=O)c1-c1c(-c2ccccc2OCC)sc2cc(OC)c(Cl)cc12 [5-073] | 0 (Herbicidal rate of 5% or less (almost no effect)) | 0 (Herbicidal rate of 5% or less (almost no effect)) | 5 (Herbicidal rate of 90% or more (almost completely withered)) | 5 (Herbicidal rate of 90% or more (almost completely withered)) | 0 (Herbicidal rate of 5% or less (almost no effect)) | 4 (Herbicidal rate of 70% or more and less than 90%) | 0 (Herbicidal rate of 5% or less (almost no effect)) | 0 (Herbicidal rate of 5% or less (almost no effect)) | 0 (Herbicidal rate of 5% or less (almost no effect)) | 2 (Herbicidal rate of 20% or more and less than 40%) | 4 (Herbicidal rate of 70% or more and less than 90%) | 0 (Herbicidal rate of 5% or less (almost no effect)) | 4 (Herbicidal rate of 70% or more and less than 90%) | 5 (Herbicidal rate of 90% or more (almost completely withered)) | 0 (Herbicidal rate of 5% or less (almost no effect)) | 0 (Herbicidal rate of 5% or less (almost no effect)) | 3 (Herbicidal rate of 40% or more and less than 70%) | 0 (Herbicidal rate of 5% or less (almost no effect)) | 0 (Herbicidal rate of 5% or less (almost no effect)) | 0 (Herbicidal rate of 5% or less (almost no effect)) | N: redroot pigweed, herbicidal effect grade (redroot pigweed): 1 (Herbicidal rate of 5% or more and less than 20%); herbicidal effect on southern crabgrass (F) (southern crabgrass [17]): 5 (Herbicidal rate of 90% or more (almost completely withered)); herbicidal effect on Italian ryegrass (K) (Italian ryegrass [18]): 0 (Herbicidal rate of 5% or less (almost no effect)); I: wild oat, herbicidal effect grade (wild oat [19]): 0 (Herbicidal rate of 5% or less (almost no effect)); K: Italian ryegrass, herbicidal effect grade (Italian ryegrass [20]): 0 (Herbicidal rate of 5% or less (almost no effect)); herbicidal effect on Chinese sprangletop (D) (Chinese sprangletop): 0 (Herbicidal rate of 5% or less (almost no effect)); Herbicidal effect, B: Japanese bulrush (Japanese bulrush): 4 (Herbicidal rate of 70% or more and less than 90%); herbicidal effect on barnyard grass (H) (barnyard grass [21]): 5 (Herbicidal rate of 90% or more (almost completely withered)) |
